Measured values taken from patent US6472418B1, “Non-peptide NK1 receptors antagonists” (Warner-Lambert Company, priority 1998, dated 2002).

Target: T1, Human NK1 Receptor (Homo sapiens, UniProt P25103)
T1 construct: endogenous in cells; host or cells: Human lymphoma IM9 cells (whole cells)
Assay: In Vitro Human NK1 Receptor Binding Assay ([125I]Bolton-Hunter substance P displacement, IM9 cells)
Conditions: Human lymphoma IM9 cells, [125I]Bolton-Hunter substance P (0.05-0.1 nM), 50 min at 21° C.; Table 1; read-out: NK1 binding IC50
Outline: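 Radioligand displacement on whole IM9 human lymphoma cells (2.5×10^6 cells/mL) using [125I]Bolton-Hunter substance P (0.05-0.1 nM), 50 min at 21° C in Tris pH 7.4/MnCl2 buffer with protease inhibitors. Non-specific binding defined by […] [Sar9, Met(O2)11] substance P. Filtration, gamma counting, iterative curve fitting.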

T1 sequence (P25103 whole entry): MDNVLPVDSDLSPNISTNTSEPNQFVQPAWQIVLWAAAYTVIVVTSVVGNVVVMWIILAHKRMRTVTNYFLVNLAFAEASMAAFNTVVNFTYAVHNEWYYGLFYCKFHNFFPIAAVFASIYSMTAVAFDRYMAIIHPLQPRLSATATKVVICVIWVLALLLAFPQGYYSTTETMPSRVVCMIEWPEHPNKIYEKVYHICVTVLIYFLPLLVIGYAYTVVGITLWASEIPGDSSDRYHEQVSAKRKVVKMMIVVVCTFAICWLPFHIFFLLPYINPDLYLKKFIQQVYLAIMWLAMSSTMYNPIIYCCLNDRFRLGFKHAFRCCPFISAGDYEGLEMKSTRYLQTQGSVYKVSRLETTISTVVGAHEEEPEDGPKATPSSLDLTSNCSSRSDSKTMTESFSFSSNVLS

| IC50 | Compound |
| --- | --- |
| 0.7 nM | C[C@H](NC(=O)[C@@H](Cc1c[nH]c2ccccc12)NCc1cc2ccccc2o1)c1ccccc1 (relative stereo) [Example 6, 2-[(Benzofuran-2-ylmethyl)-amino]-3-(1H-indol-3-yl)-N-(1-phenyl-ethyl)-propionamide, [R-(R*,S*)]] |

Same assay, conditions: Human lymphoma IM9 cells, [125I]Bolton-Hunter substance P; Table 3, array-synthesis products; read-out: IC50 (nM) hNK1

| IC50 | Compound |
| --- | --- |
| 30 nM | O=C(NCc1ccc(Cl)c(Cl)c1)C(Cc1c[nH]c2ccccc12)NCc1cc2ccccc2o1 (stereo not drawn) [Example 279, 2-[(Benzofuran-2-ylmethyl)-amino]-N-(3,4-dichloro-benzyl)-3-(1H-indol-3-yl)-propionamide] |
| 33 nM | O=C(NCc1ccc(F)c(Cl)c1)C(Cc1c[nH]c2ccccc12)NCc1cc2ccccc2o1 (stereo not drawn) [Example 229, 2-[(Benzofuran-2-ylmethyl)-amino]-N-(3-chloro-4-fluoro-benzyl)-3-(1H-indol-3-yl)-propionamide] |
| 86 nM | O=C(NC1CCc2ccccc21)C(Cc1c[nH]c2ccccc12)NCc1cc2ccccc2o1 (stereo not drawn) [Example 262, 2-[(Benzofuran-2-ylmethyl)-amino]-N-indan-1-yl-3-(1H-indol-3-yl)-propionamide] |
| > 10000 nM | O=C(NCc1ccccc1O)C(Cc1c[nH]c2ccccc12)NCc1cc2ccccc2o1 (stereo not drawn) [Example 256, 2-[(Benzofuran-2-ylmethyl)-amino]-N-(2-hydroxy-benzyl)-3-(1H-indol-3-yl)-propionamide] |
| 14 nM | O=C(NCc1cccc([N+](=O)[O-])c1)C(Cc1c[nH]c2ccccc12)NCc1cc2ccccc2o1 (stereo not drawn) [Example 260, 2-[(Benzofuran-2-ylmethyl)-amino]-3-(1H-indol-3-yl)-N-(3-nitro-benzyl)-propionamide] |
| 68 nM | O=C(NCc1cc(F)ccc1F)C(Cc1c[nH]c2ccccc12)NCc1cc2ccccc2o1 (stereo not drawn) [Example 204, 2-[(Benzofuran-2-ylmethyl)-amino]-N-(2,5-difluoro-benzyl)-3-(1H-indol-3-yl)-propionamide] |
| 17 nM | O=C(NCc1cc(F)cc(C(F)(F)F)c1)C(Cc1c[nH]c2ccccc12)NCc1cc2ccccc2o1 (stereo not drawn) [Example 303, 2-[(Benzofuran-2-ylmethyl)-amino]-N-(3-fluoro-5-trifluoromethyl-benzyl)-3-(1H-indol-3-yl)-propionamide] |
| 2380 nM | O=C(NCCCc1ccccc1)C(Cc1c[nH]c2ccccc12)NCc1cc2ccccc2o1 (stereo not drawn) [Example 278, 2-[(Benzofuran-2-ylmethyl)-amino]-3-(1H-indol-3-yl)-N-(3-phenyl-propyl)-propionamide] |
| 591 nM | CC(NC(=O)C(Cc1c[nH]c2ccccc12)NCc1cc2ccccc2o1)c1cccc2ccccc12 (stereo not drawn) [Example 207, 2-[(Benzofuran-2-ylmethyl)-amino]-3-(1H-indol-3-yl)-N-(1-naphthalen-1-yl-ethyl)-propionamide] |

Same assay, conditions: Table 4; [125I]Bolton-Hunter substance P displacement, human IM9 cells; read-out: IC50 (nM) hNK1

| IC50 | Compound |
| --- | --- |
| 5970 nM | CC(NC(=O)C(C)(Cc1c[nH]c2ccccc12)NCc1cccnc1)c1ccccc1 (stereo not drawn) [compound 320, 3-(1H-Indol-3-yl)-2-methyl-N-(1-phenyl-ethyl)-2-[(pyridin-3-ylmethyl)-amino]-propionamide] |
| 13 nM | CC(NC(=O)C(C)(Cc1c[nH]c2ccccc12)NCc1ccc(-c2ccc([N+](=O)[O-])cc2)o1)c1ccccc1 (stereo not drawn) [compound 353, 3-(1H-Indol-3-yl)-2-methyl-2-{[5-(4-nitro-phenyl)-furan-2-ylmethyl]-amino}-N-(1-phenyl-ethyl)-propionamide] |

| Compound | IC50 |
| --- | --- |
| 2-(3-Benzo[1,3]dioxol-5-yl-allylamino)-3-(1H-indol-3-yl)-2-methyl-N-(1-phenyl-ethyl)-propionamide [compound 339] | 343 nM |

Same assay, conditions: human NK1 receptor, IM9 cells, [125I]Bolton-Hunter substance P; read-out: IC50 (nM) hNK1

| IC50 | Compound |
| --- | --- |
| 99 nM | CC(Cc1c[nH]c2ccccc12)(NCc1cc2ccccc2o1)C(=O)NCc1cc(F)ccc1F (stereo not drawn) [compound 139, 2-[(Benzofuran-2-ylmethyl)-amino]-N-(2,5-difluoro-benzyl)-3-(1H-indol-3-yl)-2-methyl-propionamide] |
| > 10000 nM | CC(CNC(=O)C(C)(Cc1c[nH]c2ccccc12)NCc1cc2ccccc2o1)c1ccccc1 (stereo not drawn) [compound 140, 2-[(Benzofuran-2-ylmethyl)-amino]-3-(1H-indol-3-yl)-2-methyl-N-(2-phenyl-propyl)-propionamide] |

More lines, now with the values behind:

| Compound | IC50 |
| --- | --- |
| CC(Cc1c[nH]c2ccccc12)(NCc1cc2ccccc2o1)C(=O)NCC1CCCO1 (stereo not drawn) [compound 135, 2-[(Benzofuran-2-ylmethyl)-amino]-3-(1H-indol-3-yl)-2-methyl-N-(tetrahydro-furan-2-ylmethyl)-propionamide] | 1200 nM |
| CC(Cc1c[nH]c2ccccc12)(NCc1cc2ccccc2o1)C(=O)NCCN1CCOCC1 (stereo not drawn) [compound 128, 2-[(Benzofuran-2-ylmethyl)-amino]-3-(1H-indol-3-yl)-2-methyl-N-(2-morpholin-4-yl-ethyl)-propionamide] | > 10000 nM |
| CC(Cc1n[nH]c2ccccc12)NC(=O)C(C)(Cc1c[nH]c2ccccc12)NCc1cc2ccccc2o1 (stereo not drawn) [compound 120, 2-[(Benzofuran-2-ylmethyl)-amino]-N-[2-(1H-indazol-3-yl)-1-methyl-ethyl]-3-(1H-indol-3-yl)-2-methyl-propionamide] | 2650 nM |
| CC(CN1CCCC1=O)NC(=O)C(C)(Cc1c[nH]c2ccccc12)NCc1cc2ccccc2o1 (stereo not drawn) [compound 93, 2-[(Benzofuran-2-ylmethyl)-amino]-3-(1H-indol-3-yl)-2-methyl-N-[1-methyl-2-(2-oxo-pyrrolidin-1-yl)-ethyl]-propionamide] | > 10000 nM |
| CC(Cc1c[nH]c2ccccc12)(NCc1cc2ccccc2o1)C(=O)NCCN1CCNC1=S (stereo not drawn) [compound 132, 2-[(Benzofuran-2-ylmethyl)-amino]-3-(1H-indol-3-yl)-2-methyl-N-[2-(2-thioxo-imidazolidin-1-yl)-ethyl]-propionamide] | 6030 nM |
| CC(NC(=O)C(C)(Cc1c[nH]c2ccccc12)NCc1cc2ccccc2o1)c1cccnc1 (stereo not drawn) [compound 44, 2-[(Benzofuran-2-ylmethyl)-amino]-3-(1H-indol-3-yl)-2-methyl-N-(1-pyridin-3-yl-ethyl)-propionamide] | 151 nM |
| CC(Cc1c[nH]c2ccccc12)(NCc1cc2ccccc2o1)C(=O)NCC(c1ccccc1)c1ccccn1 (stereo not drawn) [compound 80, 2-[(Benzofuran-2-ylmethyl)-amino]-3-(1H-indol-3-yl)-2-methyl-N-(2-phenyl-2-pyridin-2-yl-ethyl)-propionamide] | > 10000 nM |
| CC(NC(=O)C(C)(Cc1c[nH]c2ccccc12)NCc1cc2ccccc2o1)c1ccc([N+](=O)[O-])cc1 (stereo not drawn) [compound 124, 2-[(Benzofuran-2-ylmethyl)-amino]-3-(1H-indol-3-yl)-2-methyl-N-[1-(4-nitro-phenyl)-ethyl]-propionamide] | 92 nM |
| CN(C)c1ccc(CNC(=O)C(C)(Cc2c[nH]c3ccccc23)NCc2cc3ccccc3o2)cc1 (stereo not drawn) [compound 60, 2-[(Benzofuran-2-ylmethyl)-amino]-N-(4-dimethylamino-benzyl)-3-(1H-indol-3-yl)-2-methyl-propionamide] | 964 nM |
| COc1ccc(C(C)NC(=O)C(C)(Cc2c[nH]c3ccccc23)NCc2cc3ccccc3o2)cc1 (stereo not drawn) [compound 35, 2-[(Benzofuran-2-ylmethyl)-amino]-3-(1H-indol-3-yl)-N-[1-(4-methoxy-phenyl)-ethyl]-2-methyl-propionamide] | 31 nM |
| CC(Cc1c[nH]c2ccccc12)(NCc1cc2ccccc2o1)C(=O)NCCC1CCCCC1 (stereo not drawn) [compound 70, 2-[(Benzofuran-2-ylmethyl)-amino]-N-(2-cyclohexyl-ethyl)-3-(1H-indol-3-yl)-2-methyl-propionamide] | 216 nM |
| CC(Cc1c[nH]c2ccccc12)(NCc1cc2ccccc2o1)C(=O)NCc1ccc(F)cc1Cl (stereo not drawn) [compound 168] | 230 nM |
